Legend:
[1] = test system: Y93H in genotype 3a NS5A replicon; assay: Resistance mutant replicon assay, genotype 3a NS5A Y93H; format: cell-based, HCV; settings: Hepatitis C virus, read-out: 3a Y93H (nM)
Procedure, shortened: (§1)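 Site-directed mutagenesis → mutant Pi-RLuc replicon RNA → transient transfection, cured-51 Huh-7 cells → 3-fold serial cpd dilutions from DMSO stock, 72 h → RLuc read → EC50, non-linear regression.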

[2] = test system: stable HCV 1a RLuc replicon cells (genotype 1a H77 replicon); assay: HCV genotype 1a RLuc replicon reporter assay; format: cell-based; settings: Hepatitis C virus; stable genotype 1a H77 RLuc replicon cells, 72 hours
[3] = test system: NS5A chimeric genotype 2a JFH-1 replicon with genotype 2b MD2b-1 strain NS5A gene (M31); assay: HCV genotype 2b NS5A chimeric replicon assay, transient (t); format: cell-based; settings: Hepatitis C virus, 72 h, read-out: 2b (t) (nM)
Procedure, shortened: (§2)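 Stable 1b Con1 RLuc replicon cells, or Huh-Lunet cells transiently transfected with chimeric replicons (Con1 backbone carrying 3a S52 or 4a ED43 NS5A; JFH-1 backbone carrying 2b MD2b-1 NS5A, M31), treated with 3-fold dilutions for 72 h. Renilla luciferase read after lysis; EC50 by non-linear regression.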

[4] = IV and PO single dose pharmacokinetic studies in SD rats; format: in vivo; settings: Sprague-Dawley, rat, plasma, male SD rats, IV infusion 1 mg/kg, oral gavage 2 mg/kg, read-out: Rat % F
Procedure, shortened: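 Fasted male Sprague-Dawley rats (n=3/group) dosed IV by 30-min jugular infusion at 1 mg/kg or by oral gavage at 2 mg/kg, in ethanol/PEG 400 vehicles at pH 2.0–2.2. Serial plasma to 24 h quantified by LC/MS/MS (SRM); non-compartmental analysis, linear-trapezoidal AUC, %F as oral vs IV AUC.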

[5] = test system: L31V/Y93H in genotype 1b NS5A replicon; assay: Resistance mutant replicon assay, genotype 1b NS5A L31V/Y93H; format: cell-based, HCV; settings: Hepatitis C virus, read-out: 1b L31V/Y93H (nM)
Procedure, shortened: as §1

[6] = test system: stable HCV 1b RLuc replicon cells (genotype 1b Con1 replicon); assay: HCV genotype 1b RLuc replicon reporter assay; format: cell-based; settings: Hepatitis C virus; stable genotype 1b Con1 RLuc replicon cells, 72 hours
Procedure, shortened: as §2

[7] = test system: Y93N in genotype 1a NS5A replicon; assay: Resistance mutant replicon assay, genotype 1a NS5A Y93N; format: cell-based, HCV; settings: Hepatitis C virus, read-out: 1a Y93N (nM)
Procedure, shortened: as §1

[8] = test system: NS5A chimeric genotype 1b Con1 replicon with genotype 3a S52 strain NS5A gene; assay: HCV genotype 3a NS5A chimeric replicon assay; format: cell-based; settings: Hepatitis C virus, 72 h, read-out: 3a (nM)
Procedure, shortened: as §2

[9] = test system: stable HCV 2a JFH-1 Rluc replicon cells (L31 present in NS5A); assay: HCV genotype 2a JFH-1 RLuc replicon reporter assay; format: cell-based; settings: Hepatitis C virus, 72 h, read-out: 2a JFH (nM)
[10] = test system: Y93H in genotype 1a NS5A replicon; assay: Resistance mutant replicon assay, genotype 1a NS5A Y93H; format: cell-based, HCV; settings: Hepatitis C virus, read-out: 1a Y93H (nM)
Procedure, shortened: as §1

Row | Compound | EC50 [1] | EC50 [2] | EC50 [3] | bioavailability [4] | EC50 [5] | EC50 [6] | EC50 [7] | EC50 [8] | EC50 [9] | EC50 [10]
1 | COC(=O)N[C@H](C(=O)N1[C@@H](C)CC[C@H]1c1nc2ccc3cc4c(cc3c2[nH]1)OCc1cc(-c2cnc([C@@H]3CC[C@H](C)N3C(=O)[C@@H](NC(=O)OC)C3C[C@@H](C)O[C@H](C)C3)[nH]2)ccc1-4)C(C)C (some centres unmarked) [Example AS] | 0.732 nM | 26 pM | 0.026 nM | 17.4% | 2.03 nM | 45 pM | 0.325 nM | 0.051 nM | 0.028 nM | 0.148 nM
2 | COC(=O)N[C@H](C(=O)N1[C@@H](C)CC[C@H]1c1ncc(-c2ccc3c(c2)COc2cc4c(ccc5nc([C@@H]6CC[C@H](C)N6C(=O)[C@@H](NC(=O)OC)C6C[C@@H](C)O[C@H](C)C6)[nH]c54)cc2-3)[nH]1)C1C[C@@H](C)O[C@H](C)C1 (stereo partly drawn) [Example AU, Methyl {(1S)-1-[(2R,6R)-2,6-dimethyltetrahydro-2H-pyran-4-yl]-2-[(2S,5S)-2-(5-{2-[(2S,5S)-1-{(2S)-2-[(2R,6R)-2,6-dimethyltetrahydro-2H-pyran-4-yl]-2-[(methoxycarbonyl)amino]acetyl}-5-methylpyrrolidin-2-yl]-1,11-dihydroisochromeno[4′,3′:6,7]naphtho[1,2-d]imidazol-9-yl}-1H-imidazol-2-yl)-5-methylpyrrolidin-1-yl]-2-oxoethyl}carbamate] | 0.13 nM | 29 pM | 0.017 nM | 16.4% | 0.059 nM | 39 pM | 0.089 nM | 0.029 nM | 0.013 nM | 0.026 nM
